According to patent US20210000782A1, “APPLICATION OF DROFENINE OR SALT THEREOF TO PREPARATION OF MEDICINE FOR TREATING PERIPHERAL NEURON AXONAL INJURY AND PERIPHERAL RELATED NEUROPATHY” (NANJING UNIVERSITY OF CHINESE MEDICINE, priority 2018, published 2021):

Legend:
[1] = test system: db/db type II diabetic mice; test: Motor nerve conduction velocity, type II diabetic peripheral neuropathy; format: in vivo; conditions: for Motor nerve conduction velocity: db/db mice, n = 6
Protocol: (§1) 2) Animal grouped administration condition (type II diabetic mice): 16-week-old db/db mice were selected and subjected to adaptive feeding for a week. Grouping was performed according to body weights and blood glucose to obtain a control group, a model group, a drofenine low-dose group (10 mg/kg), and a drofenine medium-dose group (20 mg/kg). Before administration, the motor nerve conduction velocity and a 50% mechanical pain threshold were measured to determine DPN symptoms. Intraperitoneal injection of drofenine was performed for 4 weeks. The mechanical pain, heat pain and motor nerve conduction velocity were tested in each week.
(§2) 5) Motor nerve conduction velocity testing experiment: (1) Electrode placement: A stimulation electrode was placed at a nerve trunk, a recording electrode was placed at a muscle belly, a reference electrode was placed at a muscle tendon, and a ground wire was placed between the stimulation electrode and the recording electrode. (2) Motor nerve conduction velocity calculation: Super-strong stimulation was performed on distal and proximal ends of the nerve trunk, 2 compound muscle action potentials might be recorded on muscles dominated by this nerve, and different latency periods thereof were measured. The nerve conduction velocity was obtained by dividing a distance between the distal and proximal ends by a latency period difference between two points. A calculation formula was: Nerve conduction velocity (m/s)=distance between two points (cm)×10/latency period difference between two points.

[2] = test system: db/db type II diabetic mice; test: Heat pain testing experiment, type II diabetic peripheral neuropathy; format: in vivo; conditions: n = 6
Protocol: as §1
(§3) 2) Von Frey tactile measuring suits were purchased from a company, and a plantar test instrument was purchased from UGO company.
(§4) 4) Heat pain testing experiment: An infrared instrument was placed under the sole of the mouse, and kept still. The time was recorded when the paw of the mouse withdrew. This time was heat pain response time of the mouse.

[3] = test system: STZ-induced type I diabetic mice; test: Paw withdrawal experiment (Von Frey, 50% mechanical pain threshold), type I diabetic peripheral neuropathy; format: in vivo, C57BL/6J mice; conditions: n = 6
Protocol: (§5) The experiment was based on that when rodents received a mechanical stimulation at their paws, they generated withdrawal reflex. A Von Frey may provide stimulation force in a range of 0.008 g to 300 g. A magnitude of the stimulation force was determined by a thickness and an extending length of a nylon wire. The nylon wire with a proper thickness was selected according to practical conditions in the experiment. The proper extending length was regulated to realize vertical stimulation on the skin. The magnitude of the stimulation force might be regulated by regulating the extending length and changing the nylon wire until the nylon wire bended. The response of mice on the pain was evaluated on the basis.
(§6) 1) Animal grouped administration condition (type I diabetic mice): C57BL/6J mice were purchased from Beijing Vital River. After adaptive feeding for a week, intraperitoneal injection of STZ (180 mg/kg) was performed. Blood glucose was measured after 4-7 days. Mice with the blood glucose higher than 16 mmol/L were randomly selected. After 6 weeks after the STZ injection, grouping was performed according to body weights and the blood glucose to obtain a control group (non-diabetic mice), a model group (DPN mice), drofenine (10 mg/kg), and drofenine (20 mg/kg). Intraperitoneal injection of drofenine was performed for 4 weeks. The motor nerve conduction velocity, mechanical pain and heat pain were respectively tested in 0th week, 4th week and 8th week after the STZ injection.
as §3
(§7) 3) Paw withdrawal Experiment: A nylon wire with a proper thickness was selected. A proper extending length was regulated to realize vertical simulation on the skin. The magnitude of stimulation force might be regulated by regulating the extending length and changing the nylon wire until the nylon wire bended. Each mouse was tested for six times to determine a threshold. A 50% mechanical pain threshold of the mice was calculated according to 50% threshold=(10^ (x^f+kδ))/10000.

BChE = BChE (Homo sapiens, UniProt P06276); conditions: background statement; cited from earlier work
BChE, sequence (P06276 29-602, species assumed): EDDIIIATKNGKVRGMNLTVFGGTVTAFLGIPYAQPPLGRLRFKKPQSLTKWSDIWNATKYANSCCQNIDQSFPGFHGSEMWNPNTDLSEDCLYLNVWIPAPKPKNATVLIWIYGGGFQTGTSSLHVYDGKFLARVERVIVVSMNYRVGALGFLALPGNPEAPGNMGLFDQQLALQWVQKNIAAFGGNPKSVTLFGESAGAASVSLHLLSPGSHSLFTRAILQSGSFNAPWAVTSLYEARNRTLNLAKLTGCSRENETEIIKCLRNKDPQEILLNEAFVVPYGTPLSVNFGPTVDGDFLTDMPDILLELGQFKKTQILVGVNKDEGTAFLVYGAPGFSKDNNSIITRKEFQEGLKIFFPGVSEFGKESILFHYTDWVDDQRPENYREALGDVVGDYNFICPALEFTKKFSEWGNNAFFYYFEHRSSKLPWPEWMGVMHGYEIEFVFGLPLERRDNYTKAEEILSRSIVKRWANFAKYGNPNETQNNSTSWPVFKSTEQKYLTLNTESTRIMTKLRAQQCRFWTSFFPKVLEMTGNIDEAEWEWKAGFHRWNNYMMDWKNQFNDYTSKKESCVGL

[4] = test system: db/db type II diabetic mice; test: Paw withdrawal experiment (Von Frey, 50% mechanical pain threshold), type II diabetic peripheral neuropathy; format: in vivo; conditions: n = 6
Protocol: as §5, §1, §3, §7

[5] = test system: STZ-induced type I diabetic mice; test: Heat pain testing experiment, type I diabetic peripheral neuropathy; format: in vivo, C57BL/6J mice; conditions: n = 6
Protocol: as §6, §3, §4

[6] = test system: DRG primary cells (peripheral sensory neurons); test: Growth of peripheral sensory neurites, β-tubulin III fluorescent staining; format: cell-based, C57BL6 mouse; conditions: 24 hours incubation with different concentrations of drofenine, FIG. 1 and FIG. 2
Protocol: The experiment was based on that DPN firstly leads to abnormality of sensory neurons, and the main pathological changes were axonal atrophy and degeneration, or even disappearance. For DRG, as peripheral sensory neurons, its neurite growth state is closely related to a development process of the DPN. The inventor of the present invention added DMSO and different concentrations of drofenine into DRG primary cells for common incubation for a certain time. Then, the growth of the neurites was determined by a β-tubulin III fluorescent staining detection method, and lengths were quantified by ImageJ. The effect of the drofenine on promoting the growth of the peripheral sensory neurites was evaluated on the basis.
1) β-tubulin III for fluorescent staining was purchased from Sigma company. All cell culture reagents were purchased from Gibco company. DRG cells were taken from C57BL6 mouse spines.
2) β-tubulin III staining experiment: DRG cells were inoculated in a 12-hole plate at 100 cells/hole. After the DRG cells were attached to a wall overnight, incubation was performed for 24 hours by different concentrations of drofenine. Then, an original culture medium is removed. 4% of paraformaldehyde was added into each hole for immobilization for 15 min. Permeabilization was performed for 5 min by 0.3% Triton. After PBS washing, room-temperature sealing was performed for 1 h. […]

[7] = test system: STZ-induced type I diabetic mice; test: Motor nerve conduction velocity, type I diabetic peripheral neuropathy; format: in vivo, C57BL/6J mice; conditions: for Motor nerve conduction velocity: STZ mice, n = 6
Protocol: as §6, §2

[8] = 10 mg/kg intraperitoneal, administration week 0, mean ± SEM
[9] = 10 mg/kg intraperitoneal, administration week 1, mean ± SEM
[10] = 10 mg/kg intraperitoneal, administration week 2, mean ± SEM
[11] = 10 mg/kg intraperitoneal, administration week 3, mean ± SEM
[12] = 10 mg/kg intraperitoneal, administration week 4, mean ± SEM
[13] = 20 mg/kg intraperitoneal, administration week 0, mean ± SEM
[14] = 20 mg/kg intraperitoneal, administration week 1, mean ± SEM
[15] = 20 mg/kg intraperitoneal, administration week 2, mean ± SEM
[16] = 20 mg/kg intraperitoneal, administration week 3, mean ± SEM
[17] = 20 mg/kg intraperitoneal, administration week 4, mean ± SEM

CCN(CC)CCOC(=O)C(c1ccccc1)C1CCCCC1 (stereo not shown) [Drofenine]
Motor nerve conduction velocity [1, 8]: 34.61 ± 1.06 m/s | Motor nerve conduction velocity [1, 9]: 36.55 ± 2.14 m/s | Motor nerve conduction velocity [1, 10]: 38.23 ± 3.20 m/s | Motor nerve conduction velocity [1, 11]: 39.34 ± 2.89 m/s | Motor nerve conduction velocity [1, 12]: 40.12 ± 2.87 m/s | Motor nerve conduction velocity [1, 13]: 35.63 ± 1.03 m/s | Motor nerve conduction velocity [1, 14]: 38.82 ± 1.37 m/s | Motor nerve conduction velocity [1, 15]: 40.23 ± 2.02 m/s | Motor nerve conduction velocity [1, 16]: 41.56 ± 2.35 m/s | Motor nerve conduction velocity [1, 17]: 42.28 ± 2.26 m/s | motor nerve conduction velocity and sensation loss of db/db type II diabetic peripheral neuropathy ([1]; summary in words of Tables 4-6, db/db mice): significantly relieve | Heat response [2, 8]: 10.43 ± 0.98 s | Heat response [2, 9]: 13.52 ± 0.69 s | Heat response [2, 10]: 10.58 ± 0.32 s | Heat response [2, 11]: 8.96 ± 0.56 s | Heat response [2, 12]: 9.78 ± 0.56 s | Heat response [2, 13]: 10.39 ± 0.30 s | Heat response [2, 14]: 10.77 ± 0.54 s | Heat response [2, 15]: 8.54 ± 0.79 s | Heat response [2, 16]: 8.51 ± 0.55 s | Heat response [2, 17]: 8.01 ± 0.68 s | 50% paw withdrawal threshold [3, 8]: 2.77 ± 0.19 g | 50% paw withdrawal threshold [3, 9]: 2.53 ± 0.25 g | 50% paw withdrawal threshold [3, 10]: 1.31 ± 0.13 g | 50% paw withdrawal threshold [3, 11]: 1.40 ± 0.13 g | 50% paw withdrawal threshold [3, 12]: 1.45 ± 0.11 g | 50% paw withdrawal threshold [3, 13]: 2.77 ± 0.19 g | 50% paw withdrawal threshold [3, 14]: 2.06 ± 0.31 g | 50% paw withdrawal threshold [3, 15]: 1.31 ± 0.13 g | 50% paw withdrawal threshold [3, 16]: 1.27 ± 0.12 g | 50% paw withdrawal threshold [3, 17]: 1.35 ± 0.10 g | BChE inhibition (BChE): effective BChE competitive inhibitor | 50% paw withdrawal threshold [4, 8]: 2.81 ± 0.17 g | 50% paw withdrawal threshold [4, 9]: 2.82 ± 0.22 g | 50% paw withdrawal threshold [4, 10]: 2.21 ± 0.13 g | 50% paw withdrawal threshold [4, 11]: 2.09 ± 0.34 g | 50% paw withdrawal threshold [4, 12]: 1.98 ± 0.21 g | 50% paw withdrawal threshold [4, 13]: 2.83 ± 0.19 g | 50% paw withdrawal threshold [4, 14]: 2.62 ± 0.26 g | 50% paw withdrawal threshold [4, 15]: 2.01 ± 0.13 g | 50% paw withdrawal threshold [4, 16]: 1.92 ± 0.12 g | 50% paw withdrawal threshold [4, 17]: 1.82 ± 0.01 g | Heat response [5, 8]: 11.43 ± 0.98 s | Heat response [5, 9]: 11.12 ± 0.66 s | Heat response [5, 10]: 10.28 ± 0.68 s | Heat response [5, 11]: 8.96 ± 0.26 s | Heat response [5, 12]: 8.78 ± 0.26 s | Heat response [5, 13]: 10.3 ± 0.60 s | Heat response [5, 14]: 10.77 ± 0.94 s | Heat response [5, 15]: 8.64 ± 0.69 s | Heat response [5, 16]: 7.91 ± 0.54 s | Heat response [5, 17]: 7.71 ± 0.68 s | growth of the peripheral sensory neurites [6]: promote the growth (quantitative diagram) of the peripheral sensory neurites in a concentration dependent way | Motor nerve conduction velocity [7, 8]: 39.61 ± 1.06 m/s | Motor nerve conduction velocity [7, 10]: 40.55 ± 2.14 m/s | Motor nerve conduction velocity [7, 13]: 40.63 ± 1.03 m/s | Motor nerve conduction velocity [7, 15]: 43.82 ± 1.37 m/s | motor nerve conduction velocity and sensation loss of the type I diabetic peripheral neuropathy ([7]; summary in words of Tables 1-3, STZ mice): significantly relieve
